Test: xn = mol fraction of the nth substance listed

CCCC[n+]1ccn(C)c1.N#C[C-](C#N)C#N + CCCC[n+]1ccn(C)c1.O=S(=O)([N-]S(=O)(=O)C(F)(F)F)C(F)(F)F
viscosity [mPa·s], 100 kPa
Conditions	x2 = 0	x2 = 0.252	x2 = 0.501	x2 = 0.751
283.15 K	58.2	65.9	77.3	88.9
288.15 K	44.5	50.6	59.4	68.5
293.15 K	34.9	39.8	46.8	53.9
298.15 K	28	31.9	37.6	43.1
303.15 K	22.9	26.1	30.7	35.2
308.15 K	18.98	21.6	25.4	29.1
313.15 K	15.99	18.22	21.4	24.4
318.15 K	13.66	15.53	18.22	20.7
323.15 K	11.8	13.39	15.72	17.75
328.15 K	10.29	11.66	13.61	15.38
333.15 K	9.06	10.25	11.9	13.44
338.15 K	8.04	9.08	10.54	11.84
343.15 K	7.19	8.1	9.38	10.5
348.15 K	6.47	7.27	8.42	9.39
353.15 K	5.86	6.57	7.55	8.44
358.15 K	5.34	5.97	6.86	7.62
363.15 K	4.88	5.46	6.29	6.93

CCCCCCCC(=O)[O-].c1c[nH+]c[nH]1 + CCO
101.3 kPa
Conditions	viscosity [mPa·s]
293.15 K, x2 = 0.1984	53.79
293.15 K, x2 = 0.301	40.4
293.15 K, x2 = 0.5999	14.5
298.15 K, x2 = 0.8989	2.949
303.15 K, x2 = 0.1043	45
303.15 K, x2 = 0.5999	12
303.15 K, x2 = 0.8989	2.686
313.15 K, x2 = 0	36.92
313.15 K, x2 = 0.301	21.5
313.15 K, x2 = 0.5999	9.9
313.15 K, x2 = 0.7006	6.9
318.15 K, x2 = 0.5999	9
318.15 K, x2 = 0.8989	2.125

c1nnn[nH]1 + CCCC[P+](CCCC)(CCCC)CCCC.[Cl-] + [N]=O
303.15 K, 101.3 kPa
Conditions	viscosity [mPa·s]
x1 = 0.2439, x2 = 0.2439	3.1
x1 = 0.2518, x2 = 0.2518	4
x1 = 0.2597, x2 = 0.2597	4
x1 = 0.2723, x2 = 0.2723	6
x1 = 0.2867, x2 = 0.2867	9.2

CCCCCC[n+]1ccn(C)c1.[Br-] + OC1OC[C@@H](O)[C@H](O)[C@H]1O + O
298.15 K, 101 kPa
Conditions	viscosity [mPa·s]
x2 = 0, x1 = 0.001844	0.948
x2 = 0, x1 = 0.003654	1.005
x2 = 0, x1 = 0.005425	1.053
x2 = 0, x1 = 0.007153	1.101

CCCCCC[n+]1ccn(C)c1.[Br-] + NC(N)=O + O
298.15 K, 100 kPa
Conditions	viscosity [mPa·s]
x2 = 0, x3 = 0.9008	6.89
x2 = 0, x3 = 0.9487	2.88
x2 = 0.008076, x3 = 0.8927	6.77
x2 = 0.008492, x3 = 0.9402	2.97
x2 = 0.01609, x3 = 0.8847	6.7
x2 = 0.01695, x3 = 0.9318	2.98
x2 = 0.02496, x3 = 0.9237	2.95
x2 = 0.02678, x3 = 0.9219	2.96
x2 = 0.03154, x3 = 0.8693	6.78
x2 = 0.03322, x3 = 0.9155	2.98
x2 = 0.03874, x3 = 0.8621	6.76
x2 = 0.0408, x3 = 0.9079	3.02

CCCCCC[n+]1ccn(C)c1.O=S(=O)([N-]S(=O)(=O)C(F)(F)F)C(F)(F)F + ClC(Cl)Cl
electrical conductivity [S/m], 101 kPa
Conditions	x1 = 0.196	x1 = 0.335	x1 = 0.956	x1 = 0.97	x2 = 0.006
288.5 K	0.462	–	–	0.146	–
318.5 K	–	0.845	0.469	–	0.459

CCCCCC[n+]1ccn(C)c1.O=S(=O)([N-]S(=O)(=O)C(F)(F)F)C(F)(F)F + CN(C)C=O
298.15 K, 100 kPa
Conditions	electrical conductivity [S/m]
x1 = 0.06572	0.9
x1 = 0.09821	1.1
x1 = 0.1404	1.2
x1 = 0.1968	1.4
x1 = 0.275	1.2

CC[n+]1ccn(CCOC)c1.O=S(=O)([O-])C(F)(F)F + CCO
101 kPa
Conditions	viscosity [mPa·s]
288.15 K, x1 = 0.2996	7.66
293.15 K, x1 = 0.699	35.3
293.15 K, x1 = 0.797	47.3
293.15 K, x1 = 0.899	64.4
298.15 K, x1 = 0.1999	3.6
298.15 K, x1 = 0.797	38.9
303.15 K, x1 = 0.0996	1.934
303.15 K, x1 = 0.1999	3.231
303.15 K, x1 = 1	57.9
308.15 K, x1 = 0.603	14.85
308.15 K, x1 = 0.797	26.79
308.15 K, x1 = 0.899	37.34
313.15 K, x1 = 0.797	22.71
318.15 K, x1 = 0.797	19.43

CCCCCCCCOS(=O)(=O)[O-].CC[n+]1ccn(C)c1 + O + O=S(=O)([O-])[O-].[Na+].[Na+]
101 kPa, frequency 0.0005 MHz, x2 = 0.7732, x3 = 0.0003656
Conditions	electrical conductivity [S/m]
283.15 K	0.483
285.15 K	0.523
288.15 K	0.59
291.15 K	0.655
293.15 K	0.699
298.15 K	0.829
303.15 K	0.977
313.15 K	1.35
323.15 K	1.68
333.15 K	2.11
343.15 K	2.63
353.15 K	3.13
358.15 K	3.41
363.15 K	3.72

101 kPa, x2 = 0.7732, x3 = 0.0003656
Conditions	viscosity [mPa·s]
295.65 K	86.6
298.15 K	75.4
303.15 K	58
308.15 K	45.4
318.15 K	29.06
328.15 K	19.55
338.15 K	13.72

CCCC[n+]1ccn(C)c1.N#C[C-](C#N)C#N + O
viscosity [mPa·s], 101 kPa
Conditions	278.15 K	288.15 K	298.15 K	308.15 K	318.15 K	328.15 K	333.15 K	338.15 K	348.15 K	358.15 K
x2 = 0	76.6	43.55	27.32	18.45	13.21	9.91	–	7.71	6.18	5.08
x2 = 0.01382	–	–	–	–	–	9.9	8.72	–	6.245	–
x2 = 0.0458	67.8	39.3	25.05	17.19	12.48	9.46	–	7.43	6.01	4.966
x2 = 0.1008	–	31.74	20.8	14.54	10.68	8.18	–	6.47	5.261	4.375
x2 = 0.175	47.79	28.85	19.03	13.37	9.89	7.62	–	6.06	4.944	4.125
x2 = 0.2116	44.3	26.98	17.9	12.67	9.43	7.3	–	5.83	4.783	4.001
x2 = 0.2885	37.68	23.28	15.62	11.15	8.36	6.51	–	5.232	4.309	3.618
x2 = 0.4273	28.9	18.24	12.43	8.99	6.81	5.351	–	4.329	3.586	3.028
x2 = 0.5034	25.05	15.99	11	8.01	6.106	4.82	–	3.916	3.273	2.748
x2 = 0.5607	21.78	14.03	9.71	7.1	5.428	4.295	–	3.496	2.912	2.472

Reference: the CheMixHub ionic liquid set
